Assay results: patent US10940150B2, “Thymine derivatives and quinazoline-dione derivatives for the inhibition of HSP27” (TECHNISCHE UNIVERSITAET DRESDEN, priority 2014, dated 2021)

Assays:
HSP27 [1] = molecular target: T1, HSP27 (Homo sapiens, UniProt P04792); assay: SpeedScreen gel filtration binding test; settings: PD SpinTraps G-25, detection by mass spectroscopy
Description: For the experimental validation of low-molecular-weight compounds which act as potential HSP27 inhibitors according to the in silico prediction, a method based on gel filtration was employed. The method for detecting molecular bonds using gel filtration was described in 2004 as “SpeedScreen” [Muckenschnabel et al., 2004] and was adapted to meet the requirements of the invention. […] For the separation, PD SpinTraps G-25 from GE Healthcare were used. During the 2-minute centrifugation at 800×g (according to operating instructions), these columns allow molecules with a molecular weight of greater than or equal to 5000 g/mol to pass through, while smaller molecules are retained in the matrix. The target protein HSP27 has a molecular weight of 27000 g/mol and therefore passes through the matrix. […] Non-bound low-molecular-weight compounds are retained by the matrix. Molecules that have passed through the matrix can then be detected by mass spectroscopy. This enables “binders” to be differentiated from “non-binders”. For the experimental validation of low-molecular-weight compounds which act as potential HSP27 inhibitors according to the in silico prediction, a method based on gel filtration was employed. […] Molecules that have passed through the matrix can then be detected by mass spectroscopy. […]

RPMI-8226 cells = assay: Development of resistance to bortezomib in RPMI-8226 cells; assay type: cell-based
HSP27 [2] = molecular target: T1, HSP27; assay: Spectrophotometric protein aggregation assay (citrate synthase, HSP27 chaperone function); assay type: biochemical; settings: 750 μmol/L; 43° C., 500 nm, 1.44 μmol/L CS, 481 nmol/L HSP27
Procedure: FIG. 1: a spectrophotometric protein aggregation assay at 43° C., a wavelength of 500 nm and a concentrations of the proteins: 1.44 μmol/L citrate synthase (CS), 481 nmol/L HSP27 (HSP) in a 40 mmol/L HEPES buffer (pH 7.4) during treatment with 14 or 28 μmol/L 2-(3-trichlorovinylphenylamino)-1,9-dihydropurin-6-one (CS+HSP+test substance no. 2), with 750 μmol/L BVDU (CS+HSP+BVDU) and without (CS+HSP; reference);
To measure the efficacy of the purine derivatives according to the invention, robust experiments for the chaperone function of the HSP27 protein were performed:
A known client protein (=substrate on which HSP27 acts as a chaperone) of HSP27 is citrate synthase. Citrate synthase is denatured when the temperature increases to 43° C. This heat denaturation is prevented or delayed by the presence of HSP27 [Jakob U, 1993]. By adding the novel active ingredients, their efficacy can thus be measured through the inhibition of the HSP27 chaperone function.
To determine the activity (i.e. the effect on the aggregation behaviour of the citrate synthase (CS) after thermal incubation) of 2-(3-trichlorovinylphenylamino)-1,9-dihydropurin-6-one in comparison to BVDU, four different batches containing 1.44 μmol/L CS, 481 nmol/L HSP27 (HSP) in a 40 mmol/L HEPES buffer (pH 7.4) were prepared and BVDU (750 μmol/L) or various concentrations of 2-(3-trichlorovinylphenylamino)-1,9-dihydropurin-6-one (14 μmol/L; 28 μmol/L) were added. The samples were then incubated at 43° C. and the aggregation behaviour of the CS was […] in a spectrometer (PerkinElmer LS55, PerkinElmer Inc.) at a wavelength of 500 nm.
It can be seen from FIG. 1 that the protein citrate synthase (graph CS alone) is denatured by increasing the temperature to 43° C. and forms aggregates. The aggregation is measured in the spectrometer at 500 nm (light scattering by protein aggregates). The presence of HSP27 (HSP) counteracts the aggregation (cf. graph, CS+HSP). Since the addition of the test substances (BVDU and 2-(3-trichlorovinylphenylamino)-1,9-dihydropurin-6-one) inhibits the chaperone function of HSP27, the activity of the respective test substance can be determined by measuring the aggregation behaviour of the CS.

[3] = test system: late-stage pancreatic cancer patients; settings: cited from earlier work

T1 sequence (P04792 whole entry): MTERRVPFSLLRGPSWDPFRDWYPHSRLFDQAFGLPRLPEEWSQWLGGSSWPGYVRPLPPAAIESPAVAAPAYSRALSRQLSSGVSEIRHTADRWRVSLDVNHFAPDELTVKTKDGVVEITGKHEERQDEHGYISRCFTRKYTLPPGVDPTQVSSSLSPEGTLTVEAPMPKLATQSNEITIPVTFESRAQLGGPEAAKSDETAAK

SpeedScreen: passage through Sephadex G-25 matrix bound to HSP27 (binder / non-binder) (HSP27 [1]) | SMILES | final cell count (RPMI-8226 cells; bortezomib 0.075-0.275 ng/ml + 30 μmol/L BVDU (FIG. 8a), without HSP27 inhibitor 510,000 cells/ml) | final cell count (RPMI-8226 cells; bortezomib 0.1-0.3 ng/ml + 30 μM/L BVDU (FIG. 6a), without HSP27 inhibitor 950,000 cells/ml) | final cell count (RPMI-8226 cells; bortezomib 0.1-0.3 ng/ml + 30 μmol/L BVDU (FIG. 7a), without HSP27 inhibitor 950,000 cells/ml) | effect on chaperone function of HSP27 (CS aggregation) (HSP27 [2]) | safety and efficacy in patients ([3]; administered dose of 500 mg/day, oral) | tolerability in low-weight patients ([3]; increased administered dose of 760 mg/day)
tested positively | CC(=O)c1ccc2c(c1)N(CCCN(C)C)c1ccccc1S2 [Acepromazine] |  |  |  |  |  | 
 | O=c1[nH]c(=O)n([C@H]2C[C@H](O)[C@@H](CO)O2)cc1/C=C/Br [BVDU, (E)-5-(2-bromovinyl)-2′-deoxyuridine] | 340,000 cells/ml | 290,000 cells/ml | 290,000 cells/ml | partially cancels the chaperone function of HSP27 | works safely and efficiently | proved disadvantageous for low-weight patients
